Data as given in PubChem BioAssay AID1963961 (Molecular Pharmacology Branch, DTP, NCI, 2024).

Test system: K98450-129-R-PDC multicell spheroids, viability
Assay: Anticancer human tumor K98450-129-R-PDC patient-derived colon adenocarcinoma cell line growth inhibition [PI3K]
Details: for viability, T/C: stronger effect = lower value; active = viability on the fitted dose curve at most 10% of control; inactive = the rest
Procedure, shortened: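 Targeted small molecules plus PI3K inhibitors, half-log dose series from Cmax (default top 10 microM), were applied to heterotypic spheroids of cancer cells with HUVEC and MSCs. Viability indicated growth inhibition.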

[1] = curve of first compound, second compound 0.0316 µM
[2] = curve of first compound, second compound 0.1 µM
[3] = curve of first compound, second compound 0.316 µM
[4] = curve of first compound, second compound 1 µM
[5] = second compound 0.0316 µM, first compound 0.000316 µM
[6] = second compound 0.0316 µM, first compound 0.001 µM
[7] = second compound 0.0316 µM, first compound 0.00316 µM
[8] = second compound 0.0316 µM, first compound 0.01 µM
[9] = second compound 0.0316 µM, first compound 0.0316 µM
[10] = second compound 0.0316 µM, first compound 0.1 µM
[11] = second compound 0.1 µM, first compound 0.000316 µM
[12] = second compound 0.1 µM, first compound 0.001 µM
[13] = second compound 0.1 µM, first compound 0.00316 µM
[14] = second compound 0.1 µM, first compound 0.01 µM
[15] = second compound 0.1 µM, first compound 0.0316 µM
[16] = second compound 0.1 µM, first compound 0.1 µM
[17] = second compound 0.316 µM, first compound 0.000316 µM
[18] = second compound 0.316 µM, first compound 0.001 µM
[19] = second compound 0.316 µM, first compound 0.00316 µM
[20] = second compound 0.316 µM, first compound 0.01 µM
[21] = second compound 0.316 µM, first compound 0.0316 µM
[22] = second compound 0.316 µM, first compound 0.1 µM
[23] = second compound 1 µM, first compound 0.000316 µM
[24] = second compound 1 µM, first compound 0.001 µM
[25] = second compound 1 µM, first compound 0.00316 µM
[26] = second compound 1 µM, first compound 0.01 µM
[27] = second compound 1 µM, first compound 0.0316 µM
[28] = second compound 1 µM, first compound 0.1 µM
[29] = curve of first compound, second compound 0.00316 µM
[30] = curve of first compound, second compound 0.01 µM
[31] = second compound 0.00316 µM, first compound 0.0316 µM
[32] = second compound 0.00316 µM, first compound 0.1 µM
[33] = second compound 0.00316 µM, first compound 0.316 µM
[34] = second compound 0.00316 µM, first compound 1 µM
[35] = second compound 0.00316 µM, first compound 3.16 µM
[36] = second compound 0.00316 µM, first compound 10 µM
[37] = second compound 0.01 µM, first compound 0.0316 µM
[38] = second compound 0.01 µM, first compound 0.1 µM
[39] = second compound 0.01 µM, first compound 0.316 µM
[40] = second compound 0.01 µM, first compound 1 µM
[41] = second compound 0.01 µM, first compound 3.16 µM
[42] = second compound 0.01 µM, first compound 10 µM
[43] = second compound 0.0316 µM, first compound 0.316 µM
[44] = second compound 0.0316 µM, first compound 1 µM
[45] = second compound 0.0316 µM, first compound 3.16 µM
[46] = second compound 0.0316 µM, first compound 10 µM
[47] = second compound 0.1 µM, first compound 0.316 µM
[48] = second compound 0.1 µM, first compound 1 µM
[49] = second compound 0.1 µM, first compound 3.16 µM
[50] = second compound 0.1 µM, first compound 10 µM
[51] = second compound 0.316 µM, first compound 0.316 µM
[52] = second compound 0.316 µM, first compound 1 µM
[53] = second compound 0.316 µM, first compound 3.16 µM
[54] = second compound 0.316 µM, first compound 10 µM
[55] = second compound 1 µM, first compound 0.316 µM
[56] = second compound 1 µM, first compound 1 µM
[57] = second compound 1 µM, first compound 3.16 µM
[58] = second compound 1 µM, first compound 10 µM
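Also: spheroids exposed to agents for seven days before read-out.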

Cn1ncnc1[C@H]1c2n[nH]c(=O)c3cc(F)cc(c23)N[C@@H]1c1ccc(F)cc1 + CC(Nc1ncnc2nc[nH]c12)c1cc2cccc(Cl)c2c(=O)n1-c1ccccc1
inactive: viability, T/C [5] 108% | viability, T/C [6] 118% | viability, T/C [7] 111% | viability, T/C [8] 111% | viability, T/C [9] 97.9% | viability, T/C [10] 87.2% | viability, T/C [11] 110% | viability, T/C [12] 106% | viability, T/C [13] 97.5% | viability, T/C [14] 107% | viability, T/C [15] 104% | viability, T/C [16] 114% | viability, T/C [17] 109% | viability, T/C [18] 97.5% | viability, T/C [19] 112% | viability, T/C [20] 98.3% | viability, T/C [21] 108% | viability, T/C [22] 85.5% | viability, T/C [23] 100% | viability, T/C [24] 97.5% | viability, T/C [25] 93.8% | viability, T/C [26] 83.6% | viability, T/C [27] 94.5% | viability, T/C [28] 95.8% | viability, T/C (second compound 3.16 µM, first compound 0.000316 µM) 103% | viability, T/C (second compound 3.16 µM, first compound 0.001 µM) 100% | viability, T/C (second compound 3.16 µM, first compound 0.00316 µM) 99.3% | viability, T/C (second compound 3.16 µM, first compound 0.01 µM) 104% | viability, T/C (second compound 3.16 µM, first compound 0.0316 µM) 102% | viability, T/C (second compound 3.16 µM, first compound 0.1 µM) 88% | viability, T/C (second compound 10 µM, first compound 0.000316 µM) 86.5% | viability, T/C (second compound 10 µM, first compound 0.001 µM) 120% | viability, T/C (second compound 10 µM, first compound 0.00316 µM) 88.2% | viability, T/C (second compound 10 µM, first compound 0.01 µM) 87.8% | viability, T/C (second compound 10 µM, first compound 0.0316 µM) 98.3% | viability, T/C (second compound 10 µM, first compound 0.1 µM) 91.8%
> 100 nM: IC50 [1] | IC50 [2] | IC50 [3] | IC50 [4] | IC50 (curve of first compound, second compound 3.16 µM) | IC50 (curve of first compound, second compound 10 µM)

CC(C)NCC(C(=O)N1CCN(c2ncnc3c2C(C)CC3O)CC1)c1ccc(Cl)cc1 (configuration not stated) + COc1c(OCCCN2CCOCC2)ccc2c3n(c(=NC(=O)c4cnc(N)nc4)nc12)CCN3
inactive: viability, T/C [31] 107% | viability, T/C [32] 95.9% | viability, T/C [33] 115% | viability, T/C [34] 99% | viability, T/C [35] 97.4% | viability, T/C [36] 89.8% | viability, T/C [37] 111% | viability, T/C [38] 106% | viability, T/C [39] 99.3% | viability, T/C [40] 98.8% | viability, T/C [41] 90.6% | viability, T/C [42] 93.3% | viability, T/C [9] 94% | viability, T/C [10] 114% | viability, T/C [43] 88.4% | viability, T/C [44] 95.1% | viability, T/C [45] 89.8% | viability, T/C [46] 86.2% | viability, T/C [15] 79% | viability, T/C [16] 66.4% | viability, T/C [47] 67% | viability, T/C [48] 73.7% | viability, T/C [49] 95.4% | viability, T/C [50] 82.9% | viability, T/C [21] 69.5% | viability, T/C [22] 73.8% | viability, T/C [51] 58.7% | viability, T/C [52] 65.2% | viability, T/C [53] 68.9% | viability, T/C [54] 66.3% | viability, T/C [27] 54.1% | viability, T/C [28] 49.3% | viability, T/C [55] 55.6% | viability, T/C [56] 45.2% | viability, T/C [57] 59.7% | viability, T/C [58] 47.5%
> 10000 nM: IC50 [29] | IC50 [30] | IC50 [1] | IC50 [2] | IC50 [3] | IC50 [4]

CCCS(=O)(=O)Nc1ccc(F)c(C(=O)c2c[nH]c3ncc(-c4ccc(Cl)cc4)cc23)c1F
6.15 µM [middle of 4 runs]: IC50 (curve of compound)
inactive: viability, T/C (compound 0.0316 µM) 104% [middle of 4 runs] | viability, T/C (compound 0.316 µM) 116% [middle of 4 runs]
active: viability, T/C (compound 10 µM) 7.9% [middle of 4 runs]

C#Cc1c(F)ccc2cc(O)cc(-c3ncc4c(N5CC6CCC(C5)N6)nc(OCC56CCCN5CC(F)C6)nc4c3F)c12 (configuration not stated) + CC(Nc1ccc2c(c1)OCCn1cc(N3C(=O)OCC3C(F)F)nc1-2)C(N)=O
> 10000 nM: IC50 [29] | IC50 [30] | IC50 [1] | IC50 [2] | IC50 [3] | IC50 [4]
inactive: viability, T/C [31] 116% | viability, T/C [32] 101% | viability, T/C [33] 104% | viability, T/C [34] 96.2% | viability, T/C [35] 101% | viability, T/C [36] 92.7% | viability, T/C [37] 113% | viability, T/C [38] 92.1% | viability, T/C [39] 109% | viability, T/C [40] 95.2% | viability, T/C [41] 91.9% | viability, T/C [42] 91.3% | viability, T/C [9] 104% | viability, T/C [10] 100% | viability, T/C [43] 103% | viability, T/C [44] 91.2% | viability, T/C [45] 98.5% | viability, T/C [46] 87.7% | viability, T/C [15] 101% | viability, T/C [16] 106% | viability, T/C [47] 97% | viability, T/C [48] 99.9% | viability, T/C [49] 97.5% | viability, T/C [50] 91.5% | viability, T/C [21] 88.6% | viability, T/C [22] 93% | viability, T/C [51] 99.4% | viability, T/C [52] 89.1% | viability, T/C [53] 99.1% | viability, T/C [54] 77.8% | viability, T/C [27] 86% | viability, T/C [28] 92.3% | viability, T/C [55] 92.6% | viability, T/C [56] 86.4% | viability, T/C [57] 88.6% | viability, T/C [58] 72.8%

CC(=O)c1c(C)c2cnc(Nc3ccc(N4CCNCC4)cn3)nc2n(C2CCCC2)c1=O + COc1c(OCCCN2CCOCC2)ccc2c3n(c(=NC(=O)c4cnc(N)nc4)nc12)CCN3
inactive: viability, T/C (second compound 0.00316 µM, first compound 0.000316 µM) 114% | viability, T/C (second compound 0.00316 µM, first compound 0.001 µM) 119% | viability, T/C (second compound 0.00316 µM, first compound 0.00316 µM) 93.7% | viability, T/C (second compound 0.00316 µM, first compound 0.01 µM) 90.5% | viability, T/C [31] 101% | viability, T/C [32] 95.8% | viability, T/C (second compound 0.01 µM, first compound 0.000316 µM) 109% | viability, T/C (second compound 0.01 µM, first compound 0.001 µM) 101% | viability, T/C (second compound 0.01 µM, first compound 0.00316 µM) 97.3% | viability, T/C (second compound 0.01 µM, first compound 0.01 µM) 91.1% | viability, T/C [37] 98.1% | viability, T/C [38] 92.4% | viability, T/C [5] 85.7% | viability, T/C [6] 96.7% | viability, T/C [7] 97.3% | viability, T/C [8] 87.6% | viability, T/C [9] 86.5% | viability, T/C [10] 70.4% | viability, T/C [11] 78.9% | viability, T/C [12] 81.1% | viability, T/C [13] 74.3% | viability, T/C [14] 67% | viability, T/C [15] 79.3% | viability, T/C [16] 72.1% | viability, T/C [17] 59% | viability, T/C [18] 68.7% | viability, T/C [19] 65.7% | viability, T/C [20] 58.2% | viability, T/C [21] 70% | viability, T/C [22] 56.1% | viability, T/C [23] 62% | viability, T/C [24] 48.5% | viability, T/C [25] 51.6% | viability, T/C [26] 57.7% | viability, T/C [27] 57.8% | viability, T/C [28] 38.8%
46 nM: IC50 [4]
> 100 nM: IC50 [29] | IC50 [30] | IC50 [1] | IC50 [2] | IC50 [3]
